Measurements: PubChem BioAssay AID1249 (Columbia University Molecular Screening Center, 2008)
Active and inactive are the calls of the source. The rule behind the calls is not given here.

assay: cellular cytoskeleton assembly phenotype modulators – imaging, high-content imaging, retest and dose response, confirmation (AID 1249); settings: cell-based imaging, cytoskeleton assembly phenotype, high content; at 2 µM; stronger effect = higher value;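 note: compound exposure lasted 24 h before fixation; plate controls were untreated cells for no effect and reference compound treated cells for full effect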

Compound	inhibition
Cc1nc([N+](=O)[O-])c(Br)n1CC(=O)c1ccc(Br)cc1	-7.3% (inactive)
CCNCC(O)COCC(O)CNCC (configuration not stated)	5.1% (inactive)
C=CCCCOc1ccc(C(=O)O)cc1	-2.1% (inactive)
NC(=O)COC(=O)CCCc1c[nH]c2ccccc12	2.3% (inactive)
O=S(=O)(c1cccc(-n2cnnn2)c1)N1CCOCC1	-4.7% (inactive)
CCn1c(CN2CCN(c3ccc(Cl)cc3)CC2)nc2ccccc21	-1% (inactive)
O=C(c1ccc(Cl)cc1)N1CCCOC1	-2% (inactive)
Cc1cc(NC(=O)C2C3C=CC(C3)C2C(=O)O)no1 (configuration not stated)	0.1% (inactive)
O=C(O)c1cccc(S(=O)(=O)Nc2ccccc2Cl)c1	-2.5% (inactive)
CC(=O)c1cccc(NC(=O)c2cc(-c3ccc(F)cc3)on2)c1	0.8% (inactive)
CNC(=O)c1ccccc1NC(=O)c1ccco1	0.5% (inactive)
COc1ccc(/C=N/NC(=O)c2ccccc2Cl)cc1CSc1nc2ccccc2s1	-6.6% (inactive)
CCOC(=O)Cn1nnnc1CN(CCc1ccccc1)Cc1cc2cc(CC)ccc2[nH]c1=O	1.3% (inactive)
Cc1nnc(SCc2cn3ccsc3n2)n(N)c1=O	-0.8% (inactive)
Oc1ccc(N=Nc2n[nH]c(-c3ccc(Cl)cc3)n2)cc1	-2.5% (inactive)
O=C(NCc1ccco1)c1cc(-c2ccc(Cl)cc2)on1	10.5% (inactive)
COc1cc(C(=O)Nc2ccc(S(=O)(=O)NC(C)(C)C)cc2)cc(OC)c1OC	-3.5% (inactive)
COCCCNC(=S)NC1CC2CCCC(C1)N2Cc1ccco1 (configuration not stated)	4.7% (inactive)
O=C(NCc1ccco1)c1ccc(CS(=O)(=O)Cc2ccc(Cl)cc2)o1	-2.2% (inactive)
O=C(NCc1ccncc1)c1ccc(Br)cc1	0.2% (inactive)
COC(=O)c1ccccc1NC(=O)c1ccc(-c2cccc(Cl)c2)o1	2.6% (inactive)
CCOC(=O)N1CCN(C(=O)c2ccc3c(c2)NC(=O)C(N2CCOCC2)S3)CC1 (configuration not stated)	-8.5% (inactive)
CC(C)n1c(C(=O)OCC(=O)NCc2ccc3c(c2)OCO3)cc2sccc21	14.1% (inactive)
CC1Cc2cc(-c3csc(NC(=O)Cc4cccs4)n3)ccc2N1S(C)(=O)=O (configuration not stated)	-0.1% (inactive)
CC(C)C(=O)N1CCN(c2nc(-c3ccccc3)c3c(c2C#N)CC(C)(C)OC3)CC1	-5.6% (inactive)
Cc1ccccc1-c1cc(-c2ccccc2O)on1	-5.9% (inactive)

Compound	inhibition
Cc1ccccc1Cn1nc(C)c(NC(=O)c2cc(-c3cccs3)on2)c1C	3.8% (inactive)
CCOc1ccc2ccccc2c1/C=N/n1cncn1	1.1% (inactive)
CC(C)NC1CS(=O)(=O)CC1O (configuration not stated)	4.9% (inactive)
O=C(N/N=C/c1ccc[nH]1)c1sc2ccccc2c1Cl	-8.7% (inactive)
COc1cc(C2Nc3ccc4ncccc4c3C3=C2C(=O)CCC3)cc(OC)c1O (configuration not stated)	1.2% (inactive)
O=C(O)c1ccccc1Nc1ccccc1C(=O)O	0.6% (inactive)
CCCOC(=O)c1ccc(NC(=O)Oc2ccccc2)cc1	-5.5% (inactive)
CC(=O)Nc1nc2cc3c(cc2s1)OCO3	1.3% (inactive)
CCc1ccc(C(=O)/C=C/c2ccc([N+](=O)[O-])o2)cc1	-3.9% (inactive)
COc1ccccc1OCCn1cc(C(=O)c2ccco2)c2ccccc21	3.7% (inactive)
CCOC(=O)c1cc2c(ccn2C)n1Cc1ccccc1C	2.4% (inactive)
CCOc1cc(/C=N\NC(=O)Cc2ccccc2)ccc1OCC(=O)Nc1ccc(C)c(C)c1	-0.8% (inactive)
COc1ccc(CC(=O)Nc2ccc(-c3noc(-c4cccc(OC)c4)n3)cc2)cc1	13.6% (inactive)
CCC(C)C1C(C#N)=C(N)Oc2n[nH]c(-c3ccccc3)c21 (configuration not stated)	1.1% (inactive)
COCCCNC(=O)c1cn(C)c(=O)c2cc(OC)c(OC)cc12	-7.3% (inactive)
COc1ccc(C(=O)C(CN2CCCC2)c2ccccc2)cc1 (configuration not stated)	8.8% (inactive)
Cc1ccc(F)cc1NC(=O)c1ccc2c(c1)OCO2	-1.6% (inactive)
COc1cccc(/C=N/Nc2nc(Nc3ccccc3)nc(-n3nc(C)cc3C)n2)c1O	1.2% (inactive)
Cc1cc(N2CCC(C)CC2)nc(-n2nc(C)cc2C)n1	4.7% (inactive)
CCn1c(SCC(=O)Nc2ccc(C(=O)OC)cc2)nnc1-c1cccs1	0.4% (inactive)
CCCc1sc(N/N=C/c2ccccn2)nc1-c1ccc(Br)cc1	-11.5% (inactive)
Cc1ccc(N/N=C/c2ccc(N3CCOCC3)cc2)cc1C	-7.8% (inactive)
COc1cccc(C(=O)Nc2cccc(-c3nc4ncccc4o3)c2C)c1	1.2% (inactive)
COc1ccc(-n2nnnc2S(=O)(=O)CC(=O)N2CCCCC2)cc1	0.7% (inactive)
O=C1c2cccc3c([N+](=O)[O-])ccc(c23)C(=O)N1c1nccs1	-0.1% (inactive)
N=c1c2c(-c3ccccc3)c(-c3ccccc3)n(Cc3ccccc3)c2ncn1CCCn1ccnc1	-9.6% (inactive)

Compound	inhibition
COc1ccc(C(=O)C(CN2CCOCC2)c2ccccc2)cc1 (configuration not stated)	1.1% (inactive)
CC(C)Sc1nc2c(c(=O)n1-c1ccc(F)cc1)SCC2	-6.3% (inactive)
CO/N=C/C(=N\Nc1ccc(C)cc1)C(=O)c1ccc(OC)cc1	-0.5% (inactive)
COc1ccc(-c2nnc(SCC(=O)NC3CCCCC3)o2)cc1OC	-3.7% (inactive)
CCOc1cc(/C=C2/C(=O)N(c3ccccc3)N=C2C)ccc1OC(=O)c1ccco1	4.7% (inactive)
CN1CCc2nc3sc(C#N)c(N)c3c(-c3cccs3)c2C1	5.3% (inactive)
COc1ccc(C(=O)c2c(C(F)(F)F)oc3c2C(=O)c2ccccc2C3=O)cc1	-14.9% (inactive)
O=C(OCC(=O)N1CCN(c2ccccc2)CC1)c1ccc2ncsc2c1	0.2% (inactive)
O=C(NCc1cccs1)c1nc2c(nnn2Cc2ccccc2Cl)c(=O)[nH]1	-3.6% (inactive)
C=CCn1c(N2CCCC2)nc2c1c(=O)[nH]c(=O)n2C	-4.9% (inactive)
CCN(CC)S(=O)(=O)c1ccc(NC(=O)C(C)N(c2ccc(OC)cc2)S(C)(=O)=O)cc1 (configuration not stated)	-14.1% (inactive)
COC(=O)c1cccc(S(=O)(=O)N(Cc2ccco2)Cc2cc3ccc(OC)cc3[nH]c2=O)c1	-3.3% (inactive)
COc1ccc(CS(=O)(=O)/C(Cl)=C(/Cl)C(=O)Nc2ccc(OC)nc2)cc1	-6.2% (inactive)
O=c1c2ccccc2nc(/C=C/c2ccc([N+](=O)[O-])o2)n1CCCO	-3.1% (inactive)
CCCc1nc(SCC(=O)N2CCc3ccccc32)c2c(C)c(C)sc2n1	2.2% (inactive)
Clc1ccc(C2=Nn3c(nnc3-c3cccnc3)SC2)s1	0% (inactive)
COc1cc2[nH]cc(C(=O)NCCc3ccccc3)c(=O)c2cc1OC	1.5% (inactive)
Cc1cc(C)n(-c2nc(-c3cccc(Cl)c3)cs2)n1	-10.2% (inactive)
CC(=NCCCO)c1c(O)n(Cc2ccccc2)c(=O)[nH]c1=O	3.6% (inactive)
Cn1cc([N+](=O)[O-])c(C(=O)Nc2ccc3c(c2)OCCO3)n1	-7.4% (inactive)
O=C(NCc1ccccc1)NC1(C(=O)N2CCCC2)CCCCC1	5.3% (inactive)
Cc1cc(C(=O)CSc2nnc(-c3ccc(F)cc3)o2)c(C)n1CC1COc2ccccc2O1 (configuration not stated)	-0.5% (inactive)
Cc1ccc(-n2nc3ccc(NC(=O)/C=C/c4ccco4)cc3n2)cc1C	-5.3% (inactive)
O=S(=O)(c1ccc(Cl)cc1)c1snnc1-c1ccccc1	9.2% (inactive)
COC(=O)c1sccc1NC(=O)c1ccc(Br)s1	1.8% (inactive)
O=C1C(=O)c2ccccc2-c2ccccc21	-13.5% (inactive)

Compound	inhibition
O=C1c2oc3ccccc3c(=O)c2C(c2cccc(F)c2)N1CCCO (configuration not stated)	6.3% (inactive)
CCn1c(SCC(=O)Nc2cc(C)on2)nnc1-c1ccccc1	0.6% (inactive)
CC(C)(C)NC(=O)C1N(c2cccnc2)C(=O)C2C(C(=O)Nc3ccccc3F)C3(C)C=CC21O3 (configuration not stated)	-29.5% (inactive)
Cc1cc(C)n(-c2nc3ccccc3nc2N2CCN(C(=O)c3ccc(Cl)cc3)CC2)n1	-2.4% (inactive)
Cc1ccc(Nc2nc(CSc3nnnn3C)cs2)cc1	-5.6% (inactive)
C=CCn1c(SCc2c(C)noc2C)nc2ccccc2c1=O	4.2% (inactive)
CCS(=O)(=O)N1CCC(C(=O)NC2CCCCC2)CC1	3.1% (inactive)
COc1ccc(-c2nc(-c3ccc(NC(=O)c4ccc(Br)o4)cc3)no2)cc1OC	-10.3% (inactive)
N=c1nc(N)nc2n1NC(c1ccc(F)cc1)=CS2	-1.7% (inactive)
O=C(CSc1nc2ccccc2s1)NNC(=S)Nc1ccc(Br)cc1	-0.6% (inactive)
O=C(CCS(=O)(=O)c1ccccc1)Nc1nc2c(s1)COc1ccccc1-2	6.6% (inactive)
CCC(=O)N1c2ccc(S(=O)(=O)CCC(=O)N3CCn4c3nc3ccccc34)cc2CC1C (configuration not stated)	0% (inactive)
COc1ccc(OC)c(N(CC(=O)Nc2ccccc2)S(C)(=O)=O)c1	16.3% (inactive)
COc1ccc2c(c1)CCc1c(C(=O)N3CC4(C)CC3CC(C)(C)C4)noc1-2 (configuration not stated)	4.4% (inactive)
O=C1OCC(CO)(CO)N=C1NNc1ccccc1Cl	19.6% (inactive)
C=CCNC(=O)c1nn2cccnc2c1Cl	-9.5% (inactive)
Cc1nc(SCc2ccc(Br)cc2)[nH]c(=O)c1C	-1.2% (inactive)
Cc1cc(C)cc(NC(=O)CC2NCCNC2=O)c1 (configuration not stated)	-1.4% (inactive)
O=c1cc(C(Cl)(Cl)Cl)oc2c1ccc1ccccc12	-13.6% (inactive)
Cc1ccc(-n2ncc3c(N4CCN(c5ccccc5)CC4)ncnc32)c(C)c1	-18.4% (inactive)
C/C(=N\Nc1nc2c(s1)CCCC2)c1ccccc1	-2.4% (inactive)
COc1cccc(C(C#N)N2CCCCC2)c1O (configuration not stated)	1.4% (inactive)
Cn1c(SCC(=O)NC2CCCCC2)nnc1-c1cccc(N)c1	-8.2% (inactive)
FC(F)(F)c1cc(-c2ccc3c(c2)OCO3)nc(NCc2ccco2)n1	-1.9% (inactive)
